Experimental data as given in US12084403B2, “Linkers for antibody drug conjugates” (THE BOARD OF REGENTS OF THE UNIVERSITY OF TEXAS SYSTEM, priority 2017, dated 2024).
Starred links: 1 amine or outer side, 2 acyl side, 3 side chain; linkers in the order of their positions; H or OH if unused. Non-standard residues stand in square brackets, D forms with d. Residues, ends and D or L forms follow the SMILES beside them. *: point of attachment. EDDnp = O=[N+]([O-])c1ccc(NCCN*)c([N+](=O)[O-])c1; PABC = O=C(OCc1ccc(N[*:1])cc1)[*:2]; X1 = [N-]=[N+]=NCCOCCOCCOCC(=O)*; Cit = NC(=O)NCCC[C@H](N)C(=O)O; AEEEA = NCCOCCOCCOCC(=O)O

Tests used:
human cathepsin B = human cathepsin B (Homo sapiens, UniProt P07858); assay: Cathepsin B-mediated cleavage of linear and branched probes in FRET assay; format: biochemical; settings: for Slope (RFU/sec): quencher (EdDnp) release rate, linear regression, triplicate; for release of EdDnp in the presence of human cathepsin B: result in words
Procedure: FIG. 2. Quencher release rate determination in Förster resonance energy transfer (FRET) assay. Each slope reflecting drug (quencher) release rate was calculated by linear regression using Graph Pad Prism 7 software. […] All assays were performed in triplicate and error bars represent SEM.
These model linker units consisted of cathepsin B-cleavable valine-citrulline (Val-Cit) with or without polyethyleneglycol (PEG) spacers. This dipeptide sequence has been used in many successful ADCs including the FDA-approved ADC Adcetris® (Katz et al., 2011). The sequence is stable in circulation but in lysosomes undergoes cathepsin B-mediated cleavage, resulting in intracellular release of payload (Dubowchik et al., 2002). Tryptophan and 2,4-dinitrophenylethylenediamine (EdDnp) were installed as a fluorophore/quencher(s) pair, which is commonly used in the Förster resonance energy transfer (FRET) assay. The release of EdDnp from each synthetic model linker unit in the presence of human cathepsin B (Table 1 and Scheme 3) was assessed. […] Without wishing to be bound by any theory, it is surmised that the structural congestion of branched probe 3 due to the lack of PEG spacers prevents cathepsin B accessing Val-Cit moieties.

[1] = Plasma stability test using pyrene probes, BALB/c mouse plasma; format: in vitro ADME; settings: undiluted BALB/c mouse plasma, 37° C., HPLC
Procedure: To test this hypothesis, a panel of peptide probes containing a various amino acid at the P3 position were evaluated for plasma stability at the small-molecule level (FIG. 13B). VCit- and tripeptide probes 12a-f were first synthesized by standard solid- and liquid-phase peptide synthesis and following carbamate formation. These model probes consisted of a XVCit-PABC unit where X is none (12a), serine (12b), glutamic acid (12c), aspartic acid (12d), lysine (12e), or hydroxyacetylglycine (12f). It was assumed that serine and hydroxyacetylglycine would serve as a mimic of the hydroxy-functionalized tripeptide ADC linker with increased mouse plasma stability reported by Dorywalska et al (Dorywalska et al., 2016). In particular, the 2-hydroxyacetamide group within probe 12f is the modifier that provided the greatest stability in their report. These linkers were covalently linked to 1-pyrenemethylamine, a surrogate of hydrophobic payloads with distinct UV absorbance at 341 nm (van Geel et al., 2015). Subsequently, probes 12a-f were incubated in undiluted BALB/c plasma at 37° C. and the amount of each probe was monitored by HPLC (FIG. 13C). […] Taking into account that all probes tested were stable in human plasma and no significant degradation was observed after 2 days (FIG. 14A), the accelerated degradation observed in KVCit probe 12e may indicate that a basic side chain at the P3 position provides an additional interaction with Ces1c leading to fast bond cleavage. […] Thus, the stabilizing effect of a neutral carbonyl group at the P3 position was not as significant as that of a negatively charged carboxylic acid side chain.
Plasma stability test using pyrene probes. Each test compound (10 mM in DMSO, 2 μL) was mixed with 1 μL of 1-pyrenemethylamine (10 mM in DMSO, as an internal standard) and incubated at 37° C. for 10 min. Pooled healthy human plasma or BALB/c mouse plasma (197 μL, Innovative Research) was added to the mixture, followed by incubation at 37° C. Aliquots (10 μL) were collected at each time point (0, 1, 6, 24, 48, and 96 h) and 40 μL of cold acetonitrile containing 1% formic acid was added to precipitate proteins. Supernatant of each sample was obtained and analyzed for quantification by analytical HPLC as described above. All assays were performed at least three times in technical duplicate, and data shown are representative of the replicates.

Human liver cathepsin B = biological target: T1, Human liver cathepsin B (Homo sapiens, UniProt P07858); assay: Cathepsin B-mediated cleavage assay using pyrene probes; format: biochemical; settings: 37° C., result in words
T1 construct: Human liver cathepsin B (20 ng/μL, 100 μL, EMD Millipore); purchased EMD Millipore; host or cells: human liver (tissue-derived, as the name says)
Procedure: Next, all probes were tested for responsiveness to human cathepsin B-mediated cleavage (FIG. 14B).
Cathepsin B-mediated cleavage assay using pyrene probes. Each test compound (10 mM in DMSO, 2 μL) was mixed with 97 μL of MES buffer (25 mM MES-Na, 1 mM DTT, pH 5.0) and 1 μL of 1-pyrenemethylamine (10 mM in DMSO, as an internal standard). The mixture was incubated at 37° C. for 10 min. Human liver cathepsin B (20 ng/μL, 100 μL, EMD Millipore) in MES buffer was added to the mixture, followed by incubation at 37° C. Aliquots (10 μL) were collected at each time point (0, 0.5, 1, 3, 24, and 48 h). Cold acetonitrile containing 1% formic acid (40 μL) was added to precipitate proteins. Precipitated proteins were separated by centrifugation (15,000 g, 4° C., 30 min) and supernatant of each sample was analyzed for quantification by analytical HPLC (UV absorption at 342 nm). The amount of each probe was normalized to the peak area of the internal standard. All assays were performed at least three times in technical duplicate, and data shown are representative of the replicates.

Molecule | Slope (RFU/sec) (human cathepsin B) | release of EdDnp in the presence of human cathepsin B (human cathepsin B) | t1/2 [1] | human cathepsin B-mediated cleavage rate (Human liver cathepsin B)
CC(=O)N[C@@H](Cc1c[nH]c2ccccc12)C(=O)N[C@@H](CCCCNC(=O)COCCOCCOCCn1cc(CCC(=O)N[C@H](C(=O)N[C@@H](CCCNC(N)=O)C(=O)Nc2ccc(COC(=O)NCCNc3ccc([N+](=O)[O-])cc3[N+](=O)[O-])cc2)C(C)C)nn1)C(=O)NCCOCCOCCOCC(=O)N[C@H](C(=O)N[C@@H](CCCNC(N)=O)C(=O)Nc1ccc(COC(=O)NCCNc2ccc([N+](=O)[O-])cc2[N+](=O)[O-])cc1)C(C)C [probe 4] | 1.56 ± 0.05 RFU/sec | comparable to that of linear PEG (+) probe 2 |  | 
CC(=O)N[C@@H](Cc1c[nH]c2ccccc12)C(=O)N[C@@H](CCCCn1cc(CCC(=O)N[C@H](C(=O)N[C@@H](CCCNC(N)=O)C(=O)Nc2ccc(COC(=O)NCCNc3ccc([N+](=O)[O-])cc3[N+](=O)[O-])cc2)C(C)C)nn1)C(=O)N[C@H](C(=O)N[C@@H](CCCNC(N)=O)C(=O)Nc1ccc(COC(=O)NCCNc2ccc([N+](=O)[O-])cc2[N+](=O)[O-])cc1)C(C)C [probe 3] | 0.03 ± 0.06 RFU/sec | marginal release of EdDnp |  | 
Ac-Lys-Val-Cit-PABC-Sar-pyrene [probe 12e] |  |  | 0.9 h | 
CC(=O)N[C@@H](Cc1c[nH]c2ccccc12)C(=O)N[C@@H](CCCCNC(=O)COCCOCCOCCN=[N+]=[N-])C(=O)NCCOCCOCCOCC(=O)N[C@H](C(=O)N[C@@H](CCCNC(N)=O)C(=O)Nc1ccc(COC(=O)NCCNc2ccc([N+](=O)[O-])cc2[N+](=O)[O-])cc1)C(C)C [probe 2, Ac-Trp-Lys(-PEG3-N3)-PEG3-Val-Cit-PABC-EdDnp] (Ac-WK(X1)[AEEEA]V[Cit][PABC]-EDDnp) | 1.81 ± 0.07 RFU/sec | released EdDnp more efficiently than Linear PEG (−) 1 |  | 
Ac-Asp-Val-Cit-PABC-Sar-pyrene [probe 12d] |  |  | 14.0 h | 
HOCH2CO-Gly-Val-Cit-PABC-Sar-pyrene [probe 12f] |  |  | 5.0 h | 
Ac-Ser-Val-Cit-PABC-Sar-pyrene [probe 12b] |  |  | 3.1 h | comparable with that of VCit probe 12a
Ac-Glu-Val-Cit-PABC-Sar-pyrene [probe 12c] |  |  | 19.1 h | 
Ac-Val-Cit-PABC-Sar-pyrene [probe 12a] |  |  | 2.3 h | 
